The values below come from the supplement of paper PMC4932681.

Each structure is given as a SMILES string.

Test [1] has as its system BT-474 Tam1. The test is described as follows: drug sensitivity score (DSS) (DSS (dimensionless)); higher = more sensitive; extreme values may be limits of the assay. Conditions: 4-OH-tamoxifen in medium 1 µM; 72 h. How it is done:
(§1)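 FIMM FO2B library drugs were tested at 5 concentrations (10,000-fold range) for 72 h, with CellTiter-Glo viability normalised to DMSO and benzethonium chloride controls. The Drug Sensitivity Score (DSS) is computed from the fitted logistic dose-response curve (area-based; 0 = inactive). Resistant lines and the 'in 1µM tamoxifen' arms were tested in 1 µM 4-OH-tamoxifen.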

The test system of test [2] is BT-474 Tam2. The description is as above. Conditions: 4-OH-tamoxifen in medium 1 µM; 72 h. How it is done: as §1
In test [3] the test system is BT-474. Described as above. Conditions: 72 h. How it is done:
as §1

Test [4] deals with MCF-7 Tam1. Described as above. Conditions: 4-OH-tamoxifen in medium 1 µM; 72 h. How it is done: as §1
Test [5] relates to MCF-7. Described as above. Conditions: 72 h. Here is the method:
as §1

Test [6] concerns T-47D Tam1. The description is as above. Conditions: 4-OH-tamoxifen in medium 1 µM; 72 h. How it is done: as §1
In test [7] the test system is T-47D Tam2. The description is as above. Conditions: 4-OH-tamoxifen in medium 1 µM; 72 h. Here is the method: as §1
Test [8] deals with T-47D. Described as above. Conditions: 72 h. How it is done:
as §1

The subject of test [9] is ZR-75-1 Tam1. Described as above. Conditions: 4-OH-tamoxifen in medium 1 µM; 72 h. Here is the method: as §1
Test [10] relates to ZR-75-1 Tam2. The description is as above. Conditions: 4-OH-tamoxifen in medium 1 µM; 72 h. How it is done: as §1
In test [11] the test system is ZR-75-1. Described as above. Conditions: 72 h. How it is done: as §1
Test [12] relates to BT-474. The test is described as follows: relative IC50 (midpoint of fitted logistic curve, plateau may be below 50% inhibition; CellTiter-Glo viability); higher = less potent. Conditions: 72 h. How it is done:
(§2)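 FIMM FO2B library drugs were plated at 5 concentrations spanning a 10,000-fold range in 384-well plates. Cells were incubated for 72 h at 37 °C and viability was read by CellTiter-Glo, normalised to DMSO (0% inhibition) and 100 µM benzethonium chloride (100% inhibition). IC50 values come from logistic dose-response fits (Breeze pipeline). Tamoxifen-resistant lines and the 'in 1µM tamoxifen' parental arms were tested in medium with 1 µM 4-OH-tamoxifen.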

In test [13] the test system is MCF-7 Tam1. Described as above. Conditions: 4-OH-tamoxifen in medium 1 µM; 72 h. How it is done:
as §2

Test [14] concerns T-47D. Described as above. Conditions: 72 h. How it is done:
as §2

In test [15] the test system is ZR-75-1 Tam1. Described as above. Conditions: 4-OH-tamoxifen in medium 1 µM; 72 h. How it is done:
as §2

The subject of test [16] is ZR-75-1 Tam2. Described as above. Conditions: 4-OH-tamoxifen in medium 1 µM; 72 h. How it is done: as §2
Test [17] has as its system BT-474 Tam2. The test is described as above. Conditions: 4-OH-tamoxifen in medium 1 µM; 72 h. How it is done: as §2
In test [18] the test system is ZR-75-1. Described as above. Conditions: 72 h. Here is the method:
as §2

The test system of test [19] is BT-474 Tam1. Described as above. Conditions: 4-OH-tamoxifen in medium 1 µM; 72 h. Here is the method:
as §2

Test [20] relates to MCF-7. The test is described as above. Conditions: 72 h. Here is the method:
as §2

Usually relative IC50 stands for the concentration at the midpoint between the plateaus of the fitted inhibition curve. As for `O=C1NC(=O)[C@@H](c2cn3c4c(cccc24)CCC3)[C@@H]1c1c[nH]c2ccccc12` [Tivatinib (ARQ 197)], the drug sensitivity score in test [1] was found to be 0.142; in [2], 0; in test [3] (4-OH-tamoxifen in medium 0 µM), 1.2; in test [3] (4-OH-tamoxifen in medium 1 µM), 3.08; in test [4], 0; in test [5] (4-OH-tamoxifen in medium 0 µM), 3.81. The drug sensitivity score stood at 0.0182 in [5] (4-OH-tamoxifen in medium 1 µM); 0.827 in test [6]; 0.839 in test [7]; 1.88 in [8] (4-OH-tamoxifen in medium 0 µM); 0 in test [8] (4-OH-tamoxifen in medium 1 µM); 0 in test [9]. The drug sensitivity score in test [10] came out at 0; in [11] (4-OH-tamoxifen in medium 0 µM), 0.524; in test [11] (4-OH-tamoxifen in medium 1 µM), 0. The “relative IC50” value was 0.401 µM in test [12] (4-OH-tamoxifen in medium 0 µM); 0.223 µM in [12] (4-OH-tamoxifen in medium 1 µM); greater than 1 µM in test [13]; 0.364 µM in [14] (4-OH-tamoxifen in medium 0 µM); greater than 1 µM in test [15]; greater than 1 µM in test [16].
For the molecule `Cc1ccc(-n2nc(C(C)(C)C)cc2NC(=O)Nc2ccc(OCCN3CCOCC3)c3ccccc23)cc1` [Doramapimod (BIRB 796)], the drug sensitivity score in [1] worked out at 1.04; in test [2], 0; in [3] (4-OH-tamoxifen in medium 0 µM) it was 0; in test [3] (4-OH-tamoxifen in medium 1 µM), 0.211; in [4], 0; in test [5] (4-OH-tamoxifen in medium 0 µM), 0.173. In addition, the drug sensitivity score in test [5] (4-OH-tamoxifen in medium 1 µM) was found to be 0.239; in test [6], 0.342; in [7] it was 1.06; in [8] (4-OH-tamoxifen in medium 0 µM) it was 0; in test [8] (4-OH-tamoxifen in medium 1 µM), 0; in test [9], 0. The drug sensitivity score in test [10], in [11] (4-OH-tamoxifen in medium 0 µM) and in test [11] (4-OH-tamoxifen in medium 1 µM) was 0 each time. In addition, the “relative IC50” value in test [17], in [12] (4-OH-tamoxifen in medium 0 µM), in test [13], in test [14] (4-OH-tamoxifen in medium 1 µM), in test [15] and in test [16] was greater than 10 µM each time. Besides, the “relative IC50” value in test [18] (4-OH-tamoxifen in medium 0 µM) and in [18] (4-OH-tamoxifen in medium 1 µM) was greater than 10 µM each time.
On to `Nc1ncn([C@@H]2O[C@H](CO)[C@@H](O)[C@H]2O)c(=O)n1` [Azacitidine], for which the drug sensitivity score was 0 in [1]; 0.198 in test [2]; 0.0007 in [3] (4-OH-tamoxifen in medium 0 µM); 0.194 in test [3] (4-OH-tamoxifen in medium 1 µM); 0 in [4]; 1.55 in [5] (4-OH-tamoxifen in medium 0 µM). The drug sensitivity score in test [5] (4-OH-tamoxifen in medium 1 µM) worked out at 0; in test [6] it was 0.8; in [7] it was 0.867; in [8] (4-OH-tamoxifen in medium 0 µM), 0.134; in test [8] (4-OH-tamoxifen in medium 1 µM), 0; in [9] it was 0.0216. Besides, the drug sensitivity score in [10] is 0; in test [11] (4-OH-tamoxifen in medium 0 µM), 0.0144; in test [11] (4-OH-tamoxifen in medium 1 µM), 0. Further, the “relative IC50” value in test [19] is greater than 10 µM; in test [13], greater than 10 µM; in test [20] (4-OH-tamoxifen in medium 0 µM), 2.96 µM; in test [20] (4-OH-tamoxifen in medium 1 µM) it was greater than 10 µM; in test [14] (4-OH-tamoxifen in medium 1 µM) it was greater than 10 µM; in test [16] it was greater than 10 µM. Moreover, the “relative IC50” value in test [18] (4-OH-tamoxifen in medium 1 µM) was greater than 10 µM.
As to `CC(C)(C)NC(=O)[C@H]1CC[C@H]2[C@@H]3CC[C@H]4NC(=O)C=C[C@]4(C)[C@H]3CC[C@]12C` [Finasteride], the drug sensitivity score in test [1] was 1.69; in test [2], 0.793; in [3] (4-OH-tamoxifen in medium 0 µM) it was 0; in [3] (4-OH-tamoxifen in medium 1 µM), 0; in test [4], 0; in test [5] (4-OH-tamoxifen in medium 0 µM) it was 0. Further, the drug sensitivity score was 0.553 in test [5] (4-OH-tamoxifen in medium 1 µM); 0.762 in [6]; 0.298 in [7]; 0 in [8] (4-OH-tamoxifen in medium 0 µM); 0 in test [8] (4-OH-tamoxifen in medium 1 µM); 0 in test [9]. Moreover, the drug sensitivity score in test [10], in [11] (4-OH-tamoxifen in medium 0 µM) and in [11] (4-OH-tamoxifen in medium 1 µM) was 0 each time. The “relative IC50” value in test [12] (4-OH-tamoxifen in medium 0 µM), in [12] (4-OH-tamoxifen in medium 1 µM), in [13], in test [20] (4-OH-tamoxifen in medium 0 µM), in test [14] (4-OH-tamoxifen in medium 0 µM) and in [14] (4-OH-tamoxifen in medium 1 µM) was greater than 10 µM throughout. Moreover, the “relative IC50” value in test [15], in test [16], in test [18] (4-OH-tamoxifen in medium 0 µM) and in test [18] (4-OH-tamoxifen in medium 1 µM) was greater than 10 µM each time.
